Data on 19 compounds can be found in patent US10364263B2, “Cyclic phosphates and cyclic phosphoramidates for the treatment of neurologic disorders” (Retrophin, Inc., priority 2015, dated 2019).

In this test the test system is PANK2 silenced human neuroblastoma IMR32 cells (PANK2−/−). The test is described as follows: Coenzyme A assay in PANK2 silenced cells (LC-MS quantification of free CoA). Type of test: cell-based. To be noted: compound added twice (24 h + 24 h), relative to 0.1% DMSO controls. On the procedure:
A human neuroblastoma IMR32 cell line (ATCC) with stably PANK2 silencing was obtained by lentiviral-delivered small hairpin RNA and cultured in MEM (Invitrogen) supplemented with 10% fetal bovine serum, 2 mM glutamine, 1% penicillin-streptomycin, 1 mM sodium pyruvate, 1 mM non essential amino acids and 1.5 g/l sodium bicarbonate.
For lentiviral shRNA expression, Human Emryonic Kidney HEK-293T cells (ATCC) were transfected with the appropriate pGFP-Lenti-shRNA constructs and packaging plasmids according to manufacturer's protocol (Origene Technologies, Inc.). Four different gene-specific shRNA expression vectors designed against multiple splice variants of PANK2 (Gene ID 80025) were used for transfection. A non-silencing shRNA construct (scrambled shRNA) and an empty vector expressing GFP alone were used as negative controls. The GFP tag subcloned into the lentiviral vectors was used to monitor the transfection efficiency.
IMR32 cells were plated on 150 cm dishes 48 h before transduction with lentiviral particles.
Three days after transduction medium was removed and replaced with fresh medium containing […] puromycin. Medium was replaced every 48 h. Levels of PANK2 expression on selected clones was assessed by Western Blot analysis.
To quantify CoA, PANK2^−/− IMR32 cells were plated on 12-well culture plates (Corning) at a density of 0.2×10^6 cells per well. After 72 h, compounds were freshly dissolved in DMSO and added to the culture medium to yield a final solvent concentration of 0.1% (v/v). Controls with medium containing 0.1% DMSO without test compounds were also included in each plate. Compound treated cells were incubated for 24 h at 37° C. Treatment was repeated after 24 h with newly dissolved compound and cells were further incubated at 37° C. for additional 24 h. Before LC-MS analysis of CoA levels, cells were harvested, counted, and collected in a 15 ml falcon tube and centrifuged at 200×g for 5 min at 4° C. Supernatant was removed and cell pellet was washed in 10 ml of ice-cold PBS. To further confirm that the numbers of cells in each sample were equivalent, an equal fraction of pellet was collected from each sample and subjected to protein determination analysis. After centrifugation and supernatant removal, the cell pellet was rapidly frozen in Liquid Nitrogen and stored at −80° C. until analysis.
Intracellular CoA levels were calculated considering an intracellular volume of 1 million cells=2 μl.
The 1×10^6 cellular pellet was extracted with 120 μl of aqueous 20% TFA. This solution was stirred for 2 min, sonicated in ultrasonic bath for 2 min, then stirred again for 1 min, and centrifuged for 15 min at 14000 g and at 4° C.
100 μL samples of supernatant were dried under N2 at 20° C. in the dark.
Samples were re-dissolved in 100 μl of 10 mM NH4^+ AcO^− buffer pH 5.1+IS (Dextrorphan 50 ng/ml), stirred for 2 min, sonicated in ultrasonic bath for 1 min, then stirred again for 1 min, and injected into LC-MS.
LC-MS/MS was performed using an Agilent HPLC (1100 Series, USA). The LC system was interfaced with an API-4000 Q-Trap triple quadrupole mass spectrometer (AB Sciex, Toronto, Canada) equipped with a TurbolonSpray ionization source operating in positive ion mode. Analyst™ software version 1.6 (AB Sciex, Toronto, Canada) was used for data acquisition and processing. CoA was separated using a Luna C18 column (2.0×50 mm; 5 μm particle size), column at 25° C. and flow rate of 0.2 ml/min. Injection volume was 15 μl. The mobile phases consisted of water containing 10 mM ammonium acetate pH 7 (mobile phase A) and MeCN-2-propanol 9:1 (mobile phase B). Elution was performed using a gradient starting at 2% B, holding at 2% B until 0.1 min, increasing to 98% B at 3.2 min, holding at 98% B until 4.5 min, returning to 2% B at 4.6 min and holding at 2% B until 7.5 min. Precursor ions and MRM transitions used were: CoA m/z 768.1→261.6 and 768.1→136.1. […]
With `COC(=O)CCNC(=O)[C@@H]1O[P@@](=O)(OCOC(=O)NCCSC(=O)[C@@H](N)C(C)C)OCC1(C)C` [2-194, methyl 3-((2S,4R)-2-((((2-((L-valyl)thio)ethyl)carbamoyl)oxy)methoxy)-5,5-dimethyl-2-oxido-1,3,2-dioxaphosphinane-4-carboxamido)propanoate], the “PANK2−/− CoA (Fold Increase): fold increase in Coenzyme A (CoA) levels relative to controls” value is 11.44 Fold Increase. To `COC(=O)CCNC(=O)[C@@H]1OP(=O)(OCOC(=O)[C@@H]2COC(=O)N2C(=O)OC(C)(C)C)OCC1(C)C` (stereo partly drawn) [2-189, 3-(tert-butyl) 4-((((4R)-4-((3-methoxy-3-oxopropyl)carbamoyl)-5,5-dimethyl-2-oxido-1,3,2-dioxaphosphinan-2-yl)oxy)methyl) (4S)-2-oxooxazolidine-3,4-dicarboxylate] belongs 3.86 Fold Increase; to `CCN(CC)C(=O)[C@H](Cc1ccccc1)NC(=O)OCOP1(=O)OCC(C)(C)[C@H](C(=O)NCCC(=O)OC)O1` (stereo partly drawn) [2-135, methyl 3-((4R)-2-(((((S)-1-(diethylamino)-1-oxo-3-phenylpropan-2-yl)carbamoyl)oxy)methoxy)-5,5-dimethyl-2-oxido-1,3,2-dioxaphosphinane-4-carboxamido)propanoate], 1.7 Fold Increase. To `CC(C)OC(=O)OCO[P@@]1(=O)OCC(C)(C)[C@H](C(=O)NCCC(=O)OC(C)(C)C)O1` [compound 105, tert-butyl 3-((2S,4R)-2-(((isopropoxycarbonyl)oxy)methoxy)-5,5-dimethyl-2-oxido-1,3,2-dioxaphosphinane-4-carboxamido)propanoate] belongs 4.72 Fold Increase; to `CCOC(=O)[C@H](Cc1ccccc1)NC(=O)OCOP1(=O)OCC(C)(C)[C@H](C(=O)NCCC(=O)OC)O1` (stereo partly drawn) [2-137, ethyl (((((4R)-4-((3-methoxy-3-oxopropyl)carbamoyl)-5,5-dimethyl-2-oxido-1,3,2-dioxaphosphinan-2-yl)oxy)methoxy)carbonyl)-L-phenylalaninate], 1.1 Fold Increase.

Turning to `COC(=O)CCNC(=O)[C@@H]1O[P@@](=O)(OCOC(=O)N[C@@H](CSC(=O)C(C)(C)C)C(=O)O)OCC1(C)C` [2-200, N-(((((2S,4R)-4-((3-methoxy-3-oxopropyl)carbamoyl)-5,5-dimethyl-2-oxido-1,3,2-dioxaphosphinan-2-yl)oxy)methoxy)carbonyl)-S-pivaloyl-L-cysteine], the “PANK2−/− CoA (Fold Increase): fold increase in Coenzyme A (CoA) levels relative to controls” value came to 1.84 Fold Increase.

With `COC(=O)CCNC(=O)[C@@H]1O[P@](=O)(Oc2ccc(S(F)(F)(F)(F)F)cc2)OCC1(C)C` (single isomer, unassigned) [Compound No. 2-125], the “PANK2−/− CoA (Fold Increase): fold increase in Coenzyme A (CoA) levels relative to controls” value amounted to 34.02 Fold Increase. As to `COC(=O)CCNC(=O)[C@@H]1O[P@](=O)(OCOC(=O)NCCSC(=O)[C@@H](N)C(C)C)OCC1(C)C` [2-193, methyl 3-((2R,4R)-2-((((2-((L-valyl)thio)ethyl)carbamoyl)oxy)methoxy)-5,5-dimethyl-2-oxido-1,3,2-dioxaphosphinane-4-carboxamido)propanoate], the “PANK2−/− CoA (Fold Increase): fold increase in Coenzyme A (CoA) levels relative to controls” value is recorded as 5.03 Fold Increase. To `COC(=O)CCNC(=O)[C@@H]1OP(=O)(OCOC(=O)N[C@@H](CSC(=O)C(C)(C)C)C(=O)OC)OCC1(C)C` (stereo partly drawn) [2-148, methyl N-(((((4R)-4-((3-methoxy-3-oxopropyl)carbamoyl)-5,5-dimethyl-2-oxido-1,3,2-dioxaphosphinan-2-yl)oxy)methoxy)carbonyl)-S-pivaloyl-L-cysteinate] belongs 4.19 Fold Increase; to `CCOC(=O)CCNC(=O)[C@@H]1OP(=O)(OCOC(=O)C(C)(C)C)OCC1(C)C` (single isomer, unassigned) [Compound No. 107], 85.06 Fold Increase; to `COC(=O)CCNC(=O)[C@@H]1OP(=O)(OCOC(=O)NCCSC(=O)[C@@H](NC(=O)OCc2ccccc2)C(C)C)OCC1(C)C` (stereo partly drawn) [2-175, methyl 3-((4R)-2-(((S)-9-isopropyl-3,8,11-trioxo-13-phenyl-2,12-dioxa-7-thia-4,10-diazatridecyl)oxy)-5,5-dimethyl-2-oxido-1,3,2-dioxaphosphinane-4-carboxamido)propanoate], 9.31 Fold Increase. Next, `COC(=O)CCNC(=O)[C@@H]1O[P@](=O)(OCOC(=O)N[C@@H](CSC(=O)C(C)(C)C)C(=O)OCc2ccccc2)OCC1(C)C` [2-206, benzyl N-(((((2R,4R)-4-((3-methoxy-3-oxopropyl)carbamoyl)-5,5-dimethyl-2-oxido-1,3,2-dioxaphosphinan-2-yl)oxy)methoxy)carbonyl)-S-pivaloyl-L-cysteinate]: 64.41 Fold Increase; `COC(=O)CCNC(=O)[C@@H]1OP(=O)(OCOC(=O)c2cc(C(C)(C)C)n[nH]2)OCC1(C)C` (stereo partly drawn) [2-146, (((4R)-4-((3-methoxy-3-oxopropyl)carbamoyl)-5,5-dimethyl-2-oxido-1,3,2-dioxaphosphinan-2-yl)oxy)methyl 3-(tert-butyl)-1H-pyrazole-5-carboxylate]: 84.86 Fold Increase; `COC(=O)CCNC(=O)[C@@H]1OP(=O)(NCCc2ccccc2)OCC1(C)C` (stereo partly drawn) [compound 112, methyl 3-((4R)-5,5-dimethyl-2-oxido-2-(phenethylamino)-1,3,2-dioxaphosphinane-4-carboxamido)propanoate]: 1.42 Fold Increase. As to `COC(=O)CCNC(=O)[C@@H]1OP(=O)(N2CCN(C(C)=O)CC2)OCC1(C)C` (stereo partly drawn) [compound 139, methyl 3-((4R)-2-(4-acetylpiperazin-1-yl)-5,5-dimethyl-2-oxido-1,3,2-dioxaphosphinane-4-carboxamido)propanoate], the “PANK2−/− CoA (Fold Increase): fold increase in Coenzyme A (CoA) levels relative to controls” value worked out at 2.72 Fold Increase.

For the compound `COC(=O)CCNC(=O)[C@@H]1O[P@@](=O)(Oc2ccc(C[C@H](N)C(=O)OC)cc2)OCC1(C)C` (single isomer, unassigned) [2-162], the “PANK2−/− CoA (Fold Increase): fold increase in Coenzyme A (CoA) levels relative to controls” value amounted to 9.73 Fold Increase. Next, `CC(C)(C)C(=O)OCOP1(=O)OCC(C)(C)[C@H](C(=O)NCCC(=O)OCc2ccncc2)O1` (stereo partly drawn) [Compound No. 101, (((4R)-5,5-dimethyl-2-oxido-4-((3-oxo-3-(pyridin-4-ylmethoxy)propyl)carbamoyl)-1,3,2-dioxaphosphinan-2-yl)oxy)methyl pivalate]: 81.66 Fold Increase.

On to `COC(=O)CCNC(=O)[C@@H]1O[P@@](=O)(OCOC(=O)C2(C(N)=O)CC2)OCC1(C)C` [2-131, (((2S,4R)-4-((3-methoxy-3-oxopropyl)carbamoyl)-5,5-dimethy)-2-oxido-1,3,2-dioxaphosphinan-2-yl)oxy)methyl 1-carbamoylcyclopropane-1-carboxylate], for which the “PANK2−/− CoA (Fold Increase): fold increase in Coenzyme A (CoA) levels relative to controls” value was 1.44 Fold Increase. To `COC(=O)CCNC(=O)[C@@H]1OP(=O)(OCOC(=O)NCCOC(C)=O)OCC1(C)C` (stereo partly drawn) [2-168, methyl 3-((4R)-2-((((2-acetoxyethyl)carbamoyl)oxy)methoxy)-5,5-dimethyl-2-oxido-1,3,2-dioxaphosphinane-4-carboxamido)propanoate] belongs 2.69 Fold Increase.
